Experimental data: ChEMBL document CHEMBL5316284, “Structural Determinants of Indole-2-carboxamides: Identification of Lead Acetamides with Pan Antimycobacterial Activity” (J Med Chem, 2023)
≈ marks a conversion by molar mass, not a printed value.

How the values were obtained:
Assay type in all cases: functional
[1] = system: Mycobacterium tuberculosis; experiment: Antimycobacterial activity against Mycobacterium tuberculosis harbouring mmpL3 S288T mutant gene assessed as inhibition of bacterial growth by visual analysis
[2] = system: Mycobacterium tuberculosis; experiment: Antimycobacterial activity against Mycobacterium tuberculosis harbouring mmpL3 S591l mutant gene assessed as inhibition of bacterial growth by visual analysis
[3] = system: Mycobacterium tuberculosis; experiment: Antimycobacterial activity against Mycobacterium tuberculosis harbouring mmpL3 L567P mutant gene assessed as inhibition of bacterial growth by visual analysis
[4] = system: Mycobacterium tuberculosis; experiment: Antimycobacterial activity against Mycobacterium tuberculosis harbouring mmpL3 V684A mutant gene assessed as inhibition of bacterial growth by visual analysis
[5] = system: Mycobacterium tuberculosis; experiment: Antimycobacterial activity against Mycobacterium tuberculosis harbouring mmpL3 L189R mutant gene assessed as inhibition of bacterial growth by visual analysis
[6] = system: Mycobacterium tuberculosis; experiment: Antimycobacterial activity against Mycobacterium tuberculosis harbouring mmpL3 S309C mutant gene assessed as inhibition of bacterial growth by visual analysis
[7] = system: Mycobacterium tuberculosis; experiment: Antimycobacterial activity against Mycobacterium tuberculosis harbouring mmpL3 G253E mutant gene assessed as inhibition of bacterial growth by visual analysis
[8] = system: Mycobacterium tuberculosis; experiment: Antimycobacterial activity against Mycobacterium tuberculosis harbouring mmpL3 V684G mutant gene assessed as inhibition of bacterial growth by visual analysis
[9] = system: Mycobacterium tuberculosis; experiment: Antimycobacterial activity against Mycobacterium tuberculosis harbouring wild-type mmpL3 gene assessed as inhibition of bacterial growth by visual analysis
[10] = system: Mycobacterium tuberculosis; experiment: Antimycobacterial activity against Mycobacterium tuberculosis harbouring mmpL3 F644C mutant gene assessed as inhibition of bacterial growth by visual analysis

Structure (SMILES)	MIC [1] [µg/mL]	MIC [2] [µg/mL]	MIC [3] [µg/mL]	MIC [4] [µg/mL]	MIC [5] [µg/mL]	MIC [6] [µg/mL]	MIC [7] [µg/mL]	MIC [8] [µg/mL]	MIC [9] [µg/mL]	MIC [10] [µg/mL]
O=C(CNc1cccc(OC(F)(F)F)c1)NC12CC3CC(CC(C3)C1)C2	8 (≈ 21.7 µM)	4 (≈ 10.9 µM)	2 (≈ 5.43 µM)	1 (≈ 2.71 µM)	2 (≈ 5.43 µM)	4 (≈ 10.9 µM)	4 (≈ 10.9 µM)	0.5 (≈ 1.36 µM)	0.5 (≈ 1.36 µM)	
CC[C@H]1OC(=O)[C@H](C)[C@@H](O[C@H]2C[C@@](C)(OC)[C@@H](O)[C@H](C)O2)[C@H](C)[C@@H](O[C@@H]2O[C@H](C)C[C@H](N(C)C)[C@H]2O)[C@](C)(OC)C[C@@H](C)C(=O)[C@H](C)[C@@H](O)[C@]1(C)O [CLARITHROMYCIN]	0.5 (≈ 0.668 µM)	0.5 (≈ 0.668 µM)	0.5 (≈ 0.668 µM)		0.5 (≈ 0.668 µM)	0.5 (≈ 0.668 µM)	0.5 (≈ 0.668 µM)	0.5 (≈ 0.668 µM)	0.5 (≈ 0.668 µM)	0.5 (≈ 0.668 µM)
C[C@@H]1[C@H]2C[C@@H](C[C@H]1NC(=O)CNc1cccc(Cl)c1)C2(C)C	16 (≈ 49.9 µM)	4 (≈ 12.5 µM)	2 (≈ 6.23 µM)	2 (≈ 6.23 µM)	4 (≈ 12.5 µM)	8 (≈ 24.9 µM)	4 (≈ 12.5 µM)	2 (≈ 6.23 µM)	1 (≈ 3.12 µM)	4 (≈ 12.5 µM)
